Assay results published in PMC8619046, “ABCB1 and ABCG2 Control Brain Accumulation and Intestinal Disposition of the Novel ROS1/TRK/ALK Inhibitor Repotrectinib, While OATP1A/1B, ABCG2, and CYP3A Limit Its Oral Availability” (Pharmaceutics, 2021).
Values joined by “and” are separate entries in the source; they are usually repeats but may differ in a detail not shown here. Identical values can stand only once. Like-named read-outs stand apart in the source and are kept apart here.

Test: 8-h pilot oral plasma pharmacokinetics and tissue distribution, female wild-type, Abcb1a/1b;Abcg2−/− and Oatp1a/1b−/− mice
Assay type: in vivo
Conditions: 10 mg/kg oral; for Fold change (SIC (% of dose)-to-plasma ratio) / Fold change SIC (% of dose) / Fold increase Cbrain / Fold increase Cliver / Fold increase ratio (liver-to-plasma) / Fold change AUC0-8h / Fold increase ratio (brain-to-plasma): vs wild-type; for Kp at 8 h / concentration at 8 h / Cmax / AUC(0-t): female, po; for AUC(0-t): read-out: AUC0-8h
Text: Mice with similar average ages (and body weights) were randomly allocated in experimental groups as far as possible. Mice were maintained in a temperature-controlled and specific pathogen-free environment with a 12-h light and 12-h dark cycle and they received a standard diet (Transbreed, SDS Diets, Technilab-BMI, Someren, The Netherlands) and acidified water ad libitum. […] Given the objective main readout (repotrectinib plasma and tissue concentrations as measured by LC-MS/MS), no blinding method was applied.
Repotrectinib was dissolved in dimethyl sulfoxide (DMSO) at a concentration of 50 mg/mL. This stock solution was first diluted 3-fold with ethanol/polysorbate 80 (1/1; v/v), followed by further dilution with a 10 mM hydrochloric acid solution, yielding a dosing solution of 1 mg/mL, freshly prepared on the day of experiment. Final concentrations of the solvents in the administration solution were: 2%, 2%, 2%, and 94% (all v/v) for DMSO, ethanol, polysorbate 80, and 10 mM hydrochloric acid solution, respectively.
To minimize variation in absorption upon oral administration, mice were fasted for 2–3 h before repotrectinib (10 mg/kg body weight) was administered by gavage into the stomach at 10 µL/g body weight, with a blunt-ended needle. Tail vein serial blood samples were collected at 0.125, 0.25, 0.5, 1, 2 and 4 h using heparinized capillary tubes (Sarstedt, Nümbrecht, Germany) for the 8-h experiments. For the 4- and 2-h experiments, blood samplings were performed from the tail vein with the same schedule, but terminated at 2 and 1 h, respectively. Eight, four, or two hours after oral administration, mice were deeply anesthetized with 2–3% isoflurane, followed by cardiac puncture to collect blood in Eppendorf tubes containing heparin as an anticoagulant. Brain, liver, spleen, kidney, lung, small intestine, and testis were rapidly collected after sacrificing the mice by cervical dislocation. The small intestinal contents (SIC) were separated from small intestinal tissue (SI), which was flushed and rinsed with cold saline to remove any residual feces. Brain, liver, spleen, kidney, lung, SI, SIC, and testis were homogenized with 1, 3, 1, 2, 1, 3, 2, and 1 mL of 2% BSA (w/v), respectively. Plasma fraction was isolated from blood by centrifugation at 9000× g for 6 min at 4 °C. All samples were stored at −30 °C until analysis.
A sensitive and specific liquid chromatography-tandem mass spectrometry method using protein precipitation pre-treatment was adopted to quantify the concentration of repotrectinib in DMEM medium, plasma samples and tissue homogenates.
A non-compartmental model using the PKSolver add-in program for Microsoft Excel was adopted to calculate the pharmacokinetic parameters of repotrectinib. Oral availability was assessed by the plasma area under the curve (AUC), calculated using repotrectinib plasma concentration-time curves with the linear trapezoidal rule without extrapolating the infinity. Statistical testing was performed in Graphpad Prism7 (Graphpad Software, La Jolla, CA, USA). All data are presented as geometric means ± SD. Heteroscedastic data were log-transformed before applying statistical analysis. When differences between two groups were compared, the two-sided unpaired Student’s t test was used. One-way analysis of variance (ANOVA) was applied when multiple groups were compared, and the Bonferroni post hoc correction was used to accommodate multiple testing. Differences were considered statistically significant when P < 0.05.

[1] = Table S1, female Abcb1a/1b;Abcg2−/− mice, 8 h
[2] = Table S1, female Abcb1a/1b;Abcg2−/− mice, 8 h, 10 mg/kg
[3] = Table S1, female Oatp1a/1b−/− mice, 8 h
[4] = Table S1, female wild-type mice, 8 h
[5] = FVB, mouse, plasma, 10 mg/kg, Table S1, female Abcb1a/1b;Abcg2−/− mice, 8 h
[6] = FVB, mouse, plasma, 10 mg/kg, Table S1, female wild-type mice, 8 h

In the case of `C[C@H]1CNC(=O)c2cnn3ccc(nc23)N[C@H](C)c2cc(F)ccc2O1` [repotrectinib], the Tmax (>99% FVB background, mouse, plasma, female wild-type and Abcb1a/1b;Abcg2−/− mice, 8-h pilot, read-out: time of peak plasma concentrations after dosing (converted)) is reported as 30 min, the Tmax (FVB, mouse, plasma, Table S1, median (range), female wild-type mice, 8 h, read-out: Tmax) is reported as 30 min and the “SIC (% of dose)” value [1] is reported as 0.22 ± 0.20 % of dose. The “SIC (% of dose)-to-plasma ratio” value [1] was 0.48 ± 0.43 ·10-3, the “Fold change (SIC (% of dose)-to-plasma ratio)” value [1] was 0.054 and the “Fold change SIC (% of dose)” value [1] was 0.11. The “Fold increase Cbrain” value [1] was 19.5, the “Fold increase Cliver” value [1] was 1.50 and the “Fold increase ratio (liver-to-plasma)” value [1] was 0.79. The “Fold change AUC0-8h” value [2] was 1.42 and 1.4, the “Fold increase ratio (brain-to-plasma)” value [2] was 9.46 and 9.5 and the “SIC (% of dose)” value [3] was 5.59 ± 3.32 % of dose. The “SIC (% of dose)-to-plasma ratio” value [3] was 14.5 ± 8.9 ·10-3, the “Fold change (SIC (% of dose)-to-plasma ratio)” value [3] was 1.63 and the “Fold change SIC (% of dose)” value [3] was 2.69. The “Fold increase Cbrain” value [3] was 3.64, the “Fold increase Cliver” value [3] was 1.43 and the “Fold increase ratio (brain-to-plasma)” value [3] was 1.85. The “Fold increase ratio (liver-to-plasma)” value [3] was 0.86, the “Fold change AUC0-8h” value (Table S1, female Oatp1a/1b−/− mice, 8 h, 10 mg/kg) was 1.51 and 1.5 and the “SIC (% of dose)” value [4] was 2.08 ± 1.35 % of dose. The “SIC (% of dose)-to-plasma ratio” value [4] was 8.87 ± 1.83 ·10-3, the “Fold change (SIC (% of dose)-to-plasma ratio)” value [4] was 1.00 and the “Fold change AUC0-8h” value [4] was 1.00. For the same compound, the “Fold change SIC (% of dose)” value [4] was 1.00, the “Fold increase Cbrain” value [4] was 1.00 and the “Fold increase Cliver” value [4] was 1.00. The “Fold increase ratio (brain-to-plasma)” value [4] was 1.00, the “Fold increase ratio (liver-to-plasma)” value [4] was 1.00 and the Tmax (Table S1, median (range), female Abcb1a/1b;Abcg2−/− mice, 8 h) was 0.5 (0 .5-1) h. For the same compound, the Tmax (Table S1, median (range), female Oatp1a/1b−/− mice, 8 h) was 0.5 (0.25-1) h, the Kp at 8 h (FVB, mouse, brain, 10 mg/kg, Table S1, female Abcb1a/1b;Abcg2−/− mice, 8 h, read-out: Brain-to-plasma ratio) was 2.46 ± 0.31 and the concentration at 8 h (FVB, mouse, brain, 10 mg/kg, Table S1, female Abcb1a/1b;Abcg2−/− mice, 8 h, read-out: Cbrain) was 1000 ± 320 ng/g. The Kp at 8 h (FVB, mouse, brain, 10 mg/kg, Table S1, female Oatp1a/1b−/− mice, 8 h, read-out: Brain-to-plasma ratio) was 0.48 ± 0.12, the concentration at 8 h (FVB, mouse, brain, 10 mg/kg, Table S1, female Oatp1a/1b−/− mice, 8 h, read-out: Cbrain) was 186 ± 51.4 ng/g and the Kp at 8 h (FVB, mouse, brain, 10 mg/kg, Table S1, female wild-type mice, 8 h, read-out: Brain-to-plasma ratio) was 0.26 ± 0.12. For the same compound, the concentration at 8 h (FVB, mouse, brain, 10 mg/kg, Table S1, female wild-type mice, 8 h, read-out: Cbrain) was 51.2 ± 17.8 ng/g, the concentration at 8 h (FVB, mouse, liver, 10 mg/kg, Table S1, female Abcb1a/1b;Abcg2−/− mice, 8 h, read-out: Cliver) was 1.78 ± 0.77 µg/mL and the Kp at 8 h (FVB, mouse, liver, 10 mg/kg, Table S1, female Abcb1a/1b;Abcg2−/− mice, 8 h, read-out: Liver-to-plasma ratio) was 4.21 ± 0.35. It also gave a concentration at 8 h (FVB, mouse, liver, 10 mg/kg, Table S1, female Oatp1a/1b−/− mice, 8 h, read-out: Cliver) of 1.75 ± 0.45 µg/mL, a Kp at 8 h (FVB, mouse, liver, 10 mg/kg, Table S1, female Oatp1a/1b−/− mice, 8 h, read-out: Liver-to-plasma ratio) of 4.59 ± 1.28 and a concentration at 8 h (FVB, mouse, liver, 10 mg/kg, Table S1, female wild-type mice, 8 h, read-out: Cliver) of 1.22 ± 0.65 µg/mL. The Kp at 8 h (FVB, mouse, liver, 10 mg/kg, Table S1, female wild-type mice, 8 h, read-out: Liver-to-plasma ratio) was 5.36 ± 0.54, the Cmax [5] was 6.19 ± 0.44 µg/mL and the AUC(0-t) [5] was 23.1 ± 2.11 µg·h/mL. It also gave an AUC(0-t) (FVB, mouse, plasma, 10 mg/kg, Table S1, female Oatp1a/1b−/− mice, 8 h) of 24.6 ± 3.27 µg·h/mL, a Cmax [6] of 4.8 ± 1.78 µg/mL and an AUC(0-t) [6] of 16.3 ± 6.35 µg·h/mL. For the same compound, the Cmax (Oatp1a/1b−/−, >99% FVB background, mouse, plasma, 10 mg/kg, Table S1, female Oatp1a/1b−/− mice, 8 h) was 6.15 ± 0.8 µg/mL.
